# Test results from patent publication US20210284668A1, “GOLD (I)-PHOSPHINE 1,2,3-TRIAZOLE DERIVATIVES WITH ANTIBIOTIC PROPERTIES” (Centre National de la Recherche Scientifique, priority 2018, published 2021).
# “And” between values parts separate entries of the source, which are not always exact repeats. Identical values can stand only once.
# What was measured:
# [1] = test system: Clostridium difficile ATCC700057; experiment: MIC by microdilution, Clostridium difficile; format: cell-based; settings: strain ATCC70057 [sic] (Tables 1-2) / ATCC700057 (Tables 3-10), in duplicate
# S. aureus ATCC700699 = experiment: MIC by microdilution, S. aureus ATCC700699; format: cell-based, Staphylococcus aureus; parameters: unit not given here; settings: S. aureus ATCC700699 (MecA positive, glycopeptide resistant), in duplicate
# Summary of the method: (§1)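 Broth microdilution per CLSI document M07-A10, Mueller-Hinton medium, each MIC run in duplicate. Strains include E. coli ATCC25922 (wild-type), S. epidermidis ATCC35984 (MecA positive) and S. aureus ATCC700699 (MecA positive, glycopeptide resistant), within a mixed panel of susceptible and resistant Gram-positive/Gram-negative bacteria.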
# [2] = test system: panel of Gram-positive and Gram-negative strains; experiment: Antibacterial profile on the selected panel of strains; format: cell-based; settings: summary of Tables 1-12
# Summary of the method: as §1
# S. epidermidis ATCC35984 = experiment: MIC by microdilution, S. epidermidis ATCC35984; format: cell-based, Staphylococcus epidermidis; settings: S. epidermidis ATCC35984 (MecA positive), in duplicate
# Summary of the method: as §1
# E. faecium ATCC19434T = experiment: MIC by microdilution, E. faecium ATCC19434T; format: cell-based, Enterococcus faecium; parameters: unit not given here; settings: E. faecium ATCC19434T (wild-type), in duplicate
# Summary of the method: (§2)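 Broth microdilution per CLSI (M07-A10) in Mueller-Hinton broth, run in duplicate; MIC recorded as minimal inhibitory concentration. Panel spans wild-type to multidrug-resistant strains, e.g. S. aureus ATCC700699 (MecA+, glycopeptide resistant), S. epidermidis ATCC35984 (MecA+), E. coli ATCC25922 (wild-type).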
# E. faecium BM4147 = experiment: MIC by microdilution, E. faecium BM4147; format: cell-based, Enterococcus faecium; parameters: unit not given here; settings: E. faecium BM4147 (VanA positive, glycopeptide resistant), in duplicate
# Summary of the method: as §2
# E. coli ATCC25922 = experiment: MIC by microdilution, E. coli ATCC25922; format: cell-based, Escherichia coli; settings: E. coli ATCC25922 (wild-type), in duplicate
# Summary of the method: as §1
# E. faecalis V583 = experiment: MIC by microdilution, E. faecalis V583; format: cell-based, Enterococcus faecalis; settings: E. faecalis V583 (VanB positive, glycopeptide resistant), in duplicate
# Summary of the method: as §1
# S. epidermidis ATCC14990 = experiment: MIC by microdilution, S. epidermidis ATCC14990; format: cell-based, Staphylococcus epidermidis; settings: S. epidermidis ATCC14990 (MecA negative, wild-type), in duplicate
# Summary of the method: as §1
# S. aureus ST20131365 = experiment: MIC by microdilution, S. aureus ST20131365; format: cell-based, Staphylococcus aureus; settings: S. aureus ST20131365 (MecA positive, glycopeptide resistant), in duplicate
# Summary of the method: as §1
# [3] = test system: S. epidermidis ST20140436; experiment: MIC by microdilution, S. epidermidis ST20140436; format: cell-based, Staphylococcus epidermidis; settings: S. epidermidis ST20140436 (MecA positive, glycopeptide resistant), in duplicate
# Summary of the method: as §2
# E. faecium AUS0004 = experiment: MIC by microdilution, E. faecium AUS0004; format: cell-based, Enterococcus faecium; settings: E. faecium AUS0004 (VanB positive, glycopeptide resistant), in duplicate
# Summary of the method: as §2
# [4] = test system: S. epidermidis ST20150446; experiment: MIC by microdilution, S. epidermidis ST20150446; format: cell-based, Staphylococcus epidermidis; settings: S. epidermidis ST20150446 (MecA positive, glycopeptide resistant), in duplicate
# Summary of the method: as §2
# S. aureus ATCC29213 = experiment: MIC by microdilution, S. aureus ATCC29213; format: cell-based, Staphylococcus aureus; settings: S. aureus ATCC29213 (MecA negative, wild-type), Mueller-Hinton broth, in duplicate
# Summary of the method: as §2
# S. aureus ATCC25923 = experiment: MIC by microdilution, S. aureus ATCC25923; format: cell-based, Staphylococcus aureus; settings: S. aureus ATCC25923 (MecA negative, wild-type), Mueller-Hinton broth, in duplicate
# Summary of the method: as §2
# E. faecalis JH2-2 = experiment: MIC by microdilution, E. faecalis JH2-2; format: cell-based, Enterococcus faecalis; parameters: unit not given here; settings: E. faecalis JH2-2 (wild-type), in duplicate
# Summary of the method: as §2
# E. faecalis UCN41 = experiment: MIC by microdilution, E. faecalis UCN41; format: cell-based, Enterococcus faecalis; parameters: unit not given here; settings: E. faecalis UCN41 (VanA positive, glycopeptide resistant), in duplicate
# Summary of the method: as §2
Compound,Minimal Inhibitory Concentration (MIC) [1],Minimal Inhibitory Concentration (MIC) (S. aureus ATCC700699),antimicrobial / antibacterial activity (in words) [2],Minimal Inhibitory Concentration (MIC) (S. epidermidis ATCC35984),Minimal Inhibitory Concentration (MIC) (E. faecium ATCC19434T),Minimal Inhibitory Concentration (MIC) (E. faecium BM4147),Minimal Inhibitory Concentration (MIC) (E. coli ATCC25922),Minimal Inhibitory Concentration (MIC) (E. faecalis V583),Minimal Inhibitory Concentration (MIC) (S. epidermidis ATCC14990),Minimal Inhibitory Concentration (MIC) (S. aureus ST20131365),Minimal Inhibitory Concentration (MIC) [3],Minimal Inhibitory Concentration (MIC) (E. faecium AUS0004),Minimal Inhibitory Concentration (MIC) [4],Minimal Inhibitory Concentration (MIC) (S. aureus ATCC29213),Minimal Inhibitory Concentration (MIC) (S. aureus ATCC25923),Minimal Inhibitory Concentration (MIC) (E. faecalis JH2-2),Minimal Inhibitory Concentration (MIC) (E. faecalis UCN41)
CC[P+](CC)(CC)[Au-][c]1nn[nH]c1COC(=O)NC(C(=O)O)c1ccccc1 (stereo not shown) [TMB1],≤0.06,0.125 and 0.25,have antimicrobial activity,≤0.06,0.5,1,>8,0.5 and 1,≤0.06,0.125,≤0.06,0.5,≤0.06,0.125,0.125,0.25 and 0.5,0.5
CC[P+](CC)(CC)[Au-][c]1nn[nH]c1-c1cccc(C(=O)O)c1 [TMB13],≤0.06,0.25,have antimicrobial activity,≤0.06,0.5,2,>8,1 and 2,≤0.06,0.25,≤0.06,1 and 2,≤0.06,0.125 and 0.25,0.125,1 and 2,1 and 2
CC[P+](CC)(CC)[Au-][c]1nn[nH]c1COC(=O)NC(C(=O)NC)c1ccccc1 (stereo not shown) [TMB8],≤0.06-0.125,0.25 and 0.5,have antimicrobial activity,≤0.06,1 and 2,2,>8,2,≤0.06,0.25 and 0.5,0.125,2,0.125,0.25,0.25,1,1 and 2
CC[P+](CC)(CC)[Au-][c]1nn[nH]c1COC(=O)NCC(=O)O [TMB18],≤0.06,0.125,have antimicrobial activity,≤0.06,0.25,0.5,>8,0.25 and 0.5,≤0.06,0.125,≤0.06,0.25,≤0.06,0.125,0.125,0.25,0.25 and 0.5
CC1(C)S[C@@H]2[C@H](NC(=O)[C@H](NC(=O)CCc3cnnn3Cc3ccccc3)c3ccccc3)C(=O)N2[C@H]1C(=O)O [TMB6],2-4,>8,do not show an antibacterial activity,>8,8,>8,>8,4,0.5,>8,4,>8,4 and 8,0.5 and 1,0.5,2 and 4,8
CC[P+](CC)(CC)[Au-][c]1nn[nH]c1CN1CCN(C)CC1 [TMB33],≤0.06,0.25,have antimicrobial activity,≤0.06,0.25,0.5,>8,0.5,≤0.06,0.25,0.25,0.5,0.25,0.25,0.125,0.25,1
CC[P+](CC)(CC)[Au-][c]1nn[nH]c1COC(=O)N[C@H](Cc1ccccc1)C(=O)O [TMB27],0.125,0.25,have antimicrobial activity,≤0.06,1,1,>8,1,≤0.06,0.5,0.125,2,0.125,0.25 and 0.5,0.25,0.5,0.5 and 1
CC[P+](CC)(CC)[Au-][c]1nn[nH]c1COC(=O)NC(C(=O)OC(C)(C)C)c1ccccc1 (stereo not shown) [TMB15],0.125 and 0.25,0.5,have antimicrobial activity,≤0.06,2,4,>8,2 and 4,≤0.06,0.25 and 0.5,0.125,2,0.125 and 0.25,0.5,0.25 and 0.5,2,2
